Assay results reported in the CheMixHub viscosity set.

Test: xn = mol fraction of the nth substance listed

O=S1(=O)CCCC1 + O
Details	viscosity [mPa·s]
293.15 K, 101 kPa, x1 = 0.02074	1.163
293.15 K, 101 kPa, x1 = 0.04649	1.387
293.15 K, 101 kPa, x1 = 0.07703	1.634
293.15 K, 101 kPa, x1 = 0.1147	1.969
293.15 K, 101 kPa, x1 = 0.1615	2.405
293.15 K, 101 kPa, x1 = 0.2247	3.044
293.15 K, 101 kPa, x1 = 0.3102	3.813
293.15 K, 101 kPa, x1 = 0.4328	4.899
293.15 K, 101 kPa, x1 = 0.6323	6.59
293.15 K, 101 kPa, x1 = 0.7807	8.243
298 K, 100 kPa, x1 = 0.0215	1
298 K, 100 kPa, x1 = 0.035	1.11
298 K, 100 kPa, x1 = 0.0679	1.32
298 K, 100 kPa, x1 = 0.0888	1.51
298 K, 100 kPa, x1 = 0.121	1.74
298 K, 100 kPa, x1 = 0.221	2.52
298 K, 100 kPa, x1 = 0.569	5.19
298.15 K, 101 kPa, x1 = 0.02074	1.038
298.15 K, 101 kPa, x1 = 0.02077	1.01
298.15 K, 101 kPa, x1 = 0.04267	1.17
298.15 K, 101 kPa, x1 = 0.04649	1.221
298.15 K, 101 kPa, x1 = 0.07103	1.59
298.15 K, 101 kPa, x1 = 0.07703	1.458
298.15 K, 101 kPa, x1 = 0.09929	1.64
298.15 K, 101 kPa, x1 = 0.1147	1.735
298.15 K, 101 kPa, x1 = 0.1615	2.129
298.15 K, 101 kPa, x1 = 0.2247	2.656
298.15 K, 101 kPa, x1 = 0.25	2.738
298.15 K, 101 kPa, x1 = 0.3102	3.347
298.15 K, 101 kPa, x1 = 0.4328	4.263
298.15 K, 101 kPa, x1 = 0.5	4.583
298.15 K, 101 kPa, x1 = 0.6323	5.775
298.15 K, 101 kPa, x1 = 0.75	6.772
298.15 K, 101 kPa, x1 = 0.7807	7.049
298.15 K, 101 kPa, x1 = 0.85	7.49
303.15 K, 101 kPa, x1 = 0.0147	0.8884
303.15 K, 101 kPa, x1 = 0.02074	0.927
303.15 K, 101 kPa, x1 = 0.02077	0.91
303.15 K, 101 kPa, x1 = 0.0208	0.9245
303.15 K, 101 kPa, x1 = 0.04267	1.04
303.15 K, 101 kPa, x1 = 0.04649	1.093
303.15 K, 101 kPa, x1 = 0.0701	1.255
303.15 K, 101 kPa, x1 = 0.07103	1.34
303.15 K, 101 kPa, x1 = 0.0744	1.273
303.15 K, 101 kPa, x1 = 0.0958	1.429
303.15 K, 101 kPa, x1 = 0.09929	1.44
303.15 K, 101 kPa, x1 = 0.1435	1.761
303.15 K, 101 kPa, x1 = 0.1586	1.852
303.15 K, 101 kPa, x1 = 0.1924	2.101
303.15 K, 101 kPa, x1 = 0.25	2.287
303.15 K, 101 kPa, x1 = 0.3022	2.856
303.15 K, 101 kPa, x1 = 0.4496	3.865
303.15 K, 101 kPa, x1 = 0.5	3.797
303.15 K, 101 kPa, x1 = 0.6077	4.963
303.15 K, 101 kPa, x1 = 0.6106	5.004
303.15 K, 101 kPa, x1 = 0.749	6.085
303.15 K, 101 kPa, x1 = 0.75	5.994
303.15 K, 101 kPa, x1 = 0.7813	6.555
303.15 K, 101 kPa, x1 = 0.85	7.236
313.15 K, 101 kPa, x1 = 0.0147	0.7245
313.15 K, 101 kPa, x1 = 0.02077	0.74
313.15 K, 101 kPa, x1 = 0.0208	0.753
313.15 K, 101 kPa, x1 = 0.0701	1.014
313.15 K, 101 kPa, x1 = 0.07103	1.01
313.15 K, 101 kPa, x1 = 0.0744	1.029
313.15 K, 101 kPa, x1 = 0.0958	1.152
313.15 K, 101 kPa, x1 = 0.09929	1.15
313.15 K, 101 kPa, x1 = 0.1435	1.414
313.15 K, 101 kPa, x1 = 0.1586	1.484
313.15 K, 101 kPa, x1 = 0.1924	1.681
313.15 K, 101 kPa, x1 = 0.25	1.928
313.15 K, 101 kPa, x1 = 0.29	2.219
313.15 K, 101 kPa, x1 = 0.3022	2.267
313.15 K, 101 kPa, x1 = 0.4496	3.059
313.15 K, 101 kPa, x1 = 0.5	3.212
313.15 K, 101 kPa, x1 = 0.6077	3.923
313.15 K, 101 kPa, x1 = 0.6106	3.962
313.15 K, 101 kPa, x1 = 0.749	4.807
313.15 K, 101 kPa, x1 = 0.75	4.743
313.15 K, 101 kPa, x1 = 0.7813	5.182
313.15 K, 101 kPa, x1 = 0.85	5.24
323.15 K, 101 kPa, x1 = 0.0147	0.6051
323.15 K, 101 kPa, x1 = 0.02077	0.63
323.15 K, 101 kPa, x1 = 0.0208	0.629
323.15 K, 101 kPa, x1 = 0.04267	0.7
323.15 K, 101 kPa, x1 = 0.0701	0.841
323.15 K, 101 kPa, x1 = 0.07103	0.84
323.15 K, 101 kPa, x1 = 0.0744	0.8536
323.15 K, 101 kPa, x1 = 0.0958	0.9537
323.15 K, 101 kPa, x1 = 0.09929	0.96
323.15 K, 101 kPa, x1 = 0.1435	1.165
323.15 K, 101 kPa, x1 = 0.1586	1.221
323.15 K, 101 kPa, x1 = 0.1924	1.379
323.15 K, 101 kPa, x1 = 0.29	1.814
323.15 K, 101 kPa, x1 = 0.3022	1.85
323.15 K, 101 kPa, x1 = 0.4496	2.486
323.15 K, 101 kPa, x1 = 0.6077	3.184
323.15 K, 101 kPa, x1 = 0.6106	3.217
323.15 K, 101 kPa, x1 = 0.749	3.896
323.15 K, 101 kPa, x1 = 0.7813	4.197
